Data reported in patent US20230085307A1, “PYRIDAZINONE COMPOUND AND HERBICIDE” (NISSAN CHEMICAL CORPORATION, priority 2019, published 2023).

Experiments:
barnyard grass [1] = assay: Test Example 3: herbicidal effect by foliage application, Wagner pot (Table 18, symbol H); assay type: in vivo, barnyard grass (Echinochloa crus-galli); settings: 320 g/ha
How it was run: (§1)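 Plants were sown in alluvial soil held under 0.1–0.5 cm standing water and grown 14 days in a greenhouse at 25–30 °C. An emulsifiable formulation, water-diluted to the set dose, was then sprayed onto the foliage, and effects were scored three weeks later using previously defined criteria.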

Chinese sprangletop = assay: Test Example 3: herbicidal effect by foliage application, Wagner pot (Table 18, symbol D); assay type: in vivo, chinese sprangletop (Leptochloa chinensis); settings: 320 g/ha
How it was run: as §1

rice flat sedge = assay: Test Example 3: herbicidal effect by foliage application, Wagner pot (Table 18, symbol E); assay type: in vivo, rice flat sedge (Cyperus iria); settings: 320 g/ha
How it was run: as §1

southern crabgrass [2] = assay: Test Example 4: herbicidal effect by soil treatment (Table 19, symbol F); assay type: in vivo, southern crabgrass (Digitaria ciliaris); settings: amount of applied herbicide 320 g/ha
How it was run: (§2)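 In this soil treatment, the formulated compound reached the seeds only through the soil: seeds were buried about 1.5 cm deep in sterilized diluvial soil, then the diluted emulsion was sprayed over the surface. After three weeks at 25° C. to 30° C. in a greenhouse, effects were graded on criteria from an earlier test.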

green foxtail [3] = assay: Test Example 4: herbicidal effect by soil treatment (Table 19, symbol G); assay type: in vivo, green foxtail (Setaria viridis); settings: amount of applied herbicide 320 g/ha
How it was run: as §2

barnyard grass [4] = assay: Test Example 4: herbicidal effect by soil treatment (Table 19, symbol H); assay type: in vivo, barnyard grass (Echinochloa crus-galli); settings: amount of applied herbicide 320 g/ha
How it was run: as §2

wild oat [5] = assay: Test Example 4: herbicidal effect by soil treatment (Table 19, symbol I); assay type: in vivo, wild oat (Avena fatua); settings: amount of applied herbicide 320 g/ha
How it was run: as §2

blackgrass [6] = assay: Test Example 4: herbicidal effect by soil treatment (Table 19, symbol J); assay type: in vivo, blackgrass (Alopecurus myosuroides); settings: amount of applied herbicide 320 g/ha
How it was run: as §2

Italian ryegrass [7] = assay: Test Example 4: herbicidal effect by soil treatment (Table 19, symbol K); assay type: in vivo, Italian ryegrass (Lolium multiflorum); settings: amount of applied herbicide 320 g/ha
How it was run: as §2

windgrass [8] = assay: Test Example 4: herbicidal effect by soil treatment (Table 19, symbol L); assay type: in vivo, windgrass (Apera spica-venti); settings: amount of applied herbicide 320 g/ha
How it was run: as §2

velvetleaf [9] = assay: Test Example 4: herbicidal effect by soil treatment (Table 19, symbol M); assay type: in vivo, velvetleaf (Abutilon theophrasti); settings: amount of applied herbicide 320 g/ha
How it was run: as §2

redroot pigweed [10] = assay: Test Example 4: herbicidal effect by soil treatment (Table 19, symbol N); assay type: in vivo, redroot pigweed (Amaranthus retroflexus); settings: amount of applied herbicide 320 g/ha
How it was run: as §2

lambsquarters [11] = assay: Test Example 4: herbicidal effect by soil treatment (Table 19, symbol O); assay type: in vivo, lambsquarters (Chenopodium album); settings: amount of applied herbicide 320 g/ha
How it was run: as §2

chickweed [12] = assay: Test Example 4: herbicidal effect by soil treatment (Table 19, symbol P); assay type: in vivo, common chickweed (Stellaria media); settings: amount of applied herbicide 320 g/ha
How it was run: as §2

persian speedwell [13] = assay: Test Example 4: herbicidal effect by soil treatment (Table 19, symbol R); assay type: in vivo, Persian speedwell (Veronica persica); settings: amount of applied herbicide 320 g/ha
How it was run: as §2

southern crabgrass [14] = assay: Test Example 5: herbicidal effect by foliage application, plastic box (Table 20, symbol F); assay type: in vivo, southern crabgrass (Digitaria ciliaris); settings: 320 g/ha, foliage application after 14-day growth, evaluated three weeks after application
How it was run: (§3)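 Plants were sown into sterilized diluvial soil under about 1.5 cm cover and kept in a greenhouse at 25° C. to 30° C. Fourteen days on, foliage received an even spray of the diluted emulsion. Herbicidal or crop effect was judged three weeks afterwards.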

green foxtail [15] = assay: Test Example 5: herbicidal effect by foliage application, plastic box (Table 20, symbol G); assay type: in vivo, green foxtail (Setaria viridis); settings: 320 g/ha, foliage application after 14-day growth, evaluated three weeks after application
How it was run: as §3

barnyard grass [16] = assay: Test Example 5: herbicidal effect by foliage application, plastic box (Table 20, symbol H); assay type: in vivo, barnyard grass (Echinochloa crus-galli); settings: 320 g/ha, foliage application after 14-day growth, evaluated three weeks after application
How it was run: as §3

wild oat [17] = assay: Test Example 5: herbicidal effect by foliage application, plastic box (Table 20, symbol I); assay type: in vivo, wild oat (Avena fatua); settings: 320 g/ha, foliage application after 14-day growth, evaluated three weeks after application
How it was run: as §3

blackgrass [18] = assay: Test Example 5: herbicidal effect by foliage application, plastic box (Table 20, symbol J); assay type: in vivo, blackgrass (Alopecurus myosuroides); settings: 320 g/ha, foliage application after 14-day growth, evaluated three weeks after application
How it was run: as §3

Italian ryegrass [19] = assay: Test Example 5: herbicidal effect by foliage application, plastic box (Table 20, symbol K); assay type: in vivo, Italian ryegrass (Lolium multiflorum); settings: 320 g/ha, foliage application after 14-day growth, evaluated three weeks after application
How it was run: as §3

windgrass [20] = assay: Test Example 5: herbicidal effect by foliage application, plastic box (Table 20, symbol L); assay type: in vivo, windgrass (Apera spica-venti); settings: 320 g/ha, foliage application after 14-day growth, evaluated three weeks after application
How it was run: as §3

velvetleaf [21] = assay: Test Example 5: herbicidal effect by foliage application, plastic box (Table 20, symbol M); assay type: in vivo, velvetleaf (Abutilon theophrasti); settings: 320 g/ha, foliage application after 14-day growth, evaluated three weeks after application
How it was run: as §3

redroot pigweed [22] = assay: Test Example 5: herbicidal effect by foliage application, plastic box (Table 20, symbol N); assay type: in vivo, redroot pigweed (Amaranthus retroflexus); settings: 320 g/ha, foliage application after 14-day growth, evaluated three weeks after application
How it was run: as §3

lambsquarters [23] = assay: Test Example 5: herbicidal effect by foliage application, plastic box (Table 20, symbol O); assay type: in vivo, lambsquarters (Chenopodium album); settings: 320 g/ha, foliage application after 14-day growth, evaluated three weeks after application
How it was run: as §3

chickweed [24] = assay: Test Example 5: herbicidal effect by foliage application, plastic box (Table 20, symbol P); assay type: in vivo, common chickweed (Stellaria media); settings: 320 g/ha, foliage application after 14-day growth, evaluated three weeks after application
How it was run: as §3

persian speedwell [25] = assay: Test Example 5: herbicidal effect by foliage application, plastic box (Table 20, symbol R); assay type: in vivo, Persian speedwell (Veronica persica); settings: 320 g/ha, foliage application after 14-day growth, evaluated three weeks after application
How it was run: as §3

SMILES	herbicidal effect on barnyard grass (H) (barnyard grass [1])	herbicidal effect on Chinese sprangletop (D) (Chinese sprangletop)	herbicidal effect on rice flat sedge (E) (rice flat sedge)	Herbicidal effect by soil treatment, F: southern crabgrass (southern crabgrass [2])	Herbicidal effect by soil treatment, G: green foxtail (green foxtail [3])	Herbicidal effect by soil treatment, H: barnyard grass (barnyard grass [4])	Herbicidal effect by soil treatment, I: wild oat (wild oat [5])	Herbicidal effect by soil treatment, J: blackgrass (blackgrass [6])	Herbicidal effect by soil treatment, K: Italian ryegrass (Italian ryegrass [7])	Herbicidal effect by soil treatment, L: windgrass (windgrass [8])	Herbicidal effect by soil treatment, M: velvetleaf (velvetleaf [9])	Herbicidal effect by soil treatment, N: redroot pigweed (redroot pigweed [10])	Herbicidal effect by soil treatment, O: lambsquarters (lambsquarters [11])	Herbicidal effect by soil treatment, P: chickweed (chickweed [12])	Herbicidal effect by soil treatment, R: persian speedwell (persian speedwell [13])	herbicidal effect on F: southern crabgrass (evaluation grade 0-5) (southern crabgrass [14])	herbicidal effect on G: green foxtail (evaluation grade 0-5) (green foxtail [15])	herbicidal effect on H: barnyard grass (evaluation grade 0-5) (barnyard grass [16])	herbicidal effect on I: wild oat (evaluation grade 0-5) (wild oat [17])	herbicidal effect on J: blackgrass (evaluation grade 0-5) (blackgrass [18])	also measured
CCCC(=O)Oc1c(C)nn(C)c(=O)c1-c1c(-c2ccc(F)cc2OC)sc2c(Cl)cccc12 [4-034]	4 (Herbicidal rate of 70% or more and less than 90%)	5 (Herbicidal rate of 90% or more (almost completely withered))	4 (Herbicidal rate of 70% or more and less than 90%)	3 (Herbicidal rate of 40% or more and less than 70%)	4 (Herbicidal rate of 70% or more and less than 90%)	3 (Herbicidal rate of 40% or more and less than 70%)	0 (Herbicidal rate of 5% or less (almost no effect))	0 (Herbicidal rate of 5% or less (almost no effect))	0 (Herbicidal rate of 5% or less (almost no effect))	0 (Herbicidal rate of 5% or less (almost no effect))	2 (Herbicidal rate of 20% or more and less than 40%)	4 (Herbicidal rate of 70% or more and less than 90%)	3 (Herbicidal rate of 40% or more and less than 70%)	0 (Herbicidal rate of 5% or less (almost no effect))	0 (Herbicidal rate of 5% or less (almost no effect))	0 (Herbicidal rate of 5% or less (almost no effect))	3 (Herbicidal rate of 40% or more and less than 70%)	3 (Herbicidal rate of 40% or more and less than 70%)	0 (Herbicidal rate of 5% or less (almost no effect))	0 (Herbicidal rate of 5% or less (almost no effect))	herbicidal effect on K: Italian ryegrass (evaluation grade 0-5) (Italian ryegrass [19]): 0 (Herbicidal rate of 5% or less (almost no effect)); herbicidal effect on L: windgrass (evaluation grade 0-5) (windgrass [20]): 5 (Herbicidal rate of 90% or more (almost completely withered)); herbicidal effect on M: velvetleaf (evaluation grade 0-5) (velvetleaf [21]): 3 (Herbicidal rate of 40% or more and less than 70%); herbicidal effect on N: redroot pigweed (evaluation grade 0-5) (redroot pigweed [22]): 1 (Herbicidal rate of 5% or more and less than 20%); herbicidal effect on O: lambsquarters (evaluation grade 0-5) (lambsquarters [23]): 0 (Herbicidal rate of 5% or less (almost no effect)); herbicidal effect on P: chickweed (evaluation grade 0-5) (chickweed [24]): 5 (Herbicidal rate of 90% or more (almost completely withered)); herbicidal effect on R: persian speedwell (evaluation grade 0-5) (persian speedwell [25]): 4 (Herbicidal rate of 70% or more and less than 90%)
Cc1nn(C)c(=O)c(-c2c(-c3ccc(OC(F)(F)F)cc3)sc3c(F)cccc23)c1O [4-048]	5 (Herbicidal rate of 90% or more (almost completely withered))	5 (Herbicidal rate of 90% or more (almost completely withered))	5 (Herbicidal rate of 90% or more (almost completely withered))	1 (Herbicidal rate of 5% or more and less than 20%)	0 (Herbicidal rate of 5% or less (almost no effect))	2 (Herbicidal rate of 20% or more and less than 40%)	0 (Herbicidal rate of 5% or less (almost no effect))	0 (Herbicidal rate of 5% or less (almost no effect))	0 (Herbicidal rate of 5% or less (almost no effect))	0 (Herbicidal rate of 5% or less (almost no effect))	0 (Herbicidal rate of 5% or less (almost no effect))	3 (Herbicidal rate of 40% or more and less than 70%)	1 (Herbicidal rate of 5% or more and less than 20%)	1 (Herbicidal rate of 5% or more and less than 20%)	5 (Herbicidal rate of 90% or more (almost completely withered))	1 (Herbicidal rate of 5% or more and less than 20%)	5 (Herbicidal rate of 90% or more (almost completely withered))	5 (Herbicidal rate of 90% or more (almost completely withered))	3 (Herbicidal rate of 40% or more and less than 70%)	0 (Herbicidal rate of 5% or less (almost no effect))	herbicidal effect on K: Italian ryegrass (evaluation grade 0-5) (Italian ryegrass [19]): 4 (Herbicidal rate of 70% or more and less than 90%); herbicidal effect on L: windgrass (evaluation grade 0-5) (windgrass [20]): 5 (Herbicidal rate of 90% or more (almost completely withered)); herbicidal effect on M: velvetleaf (evaluation grade 0-5) (velvetleaf [21]): 3 (Herbicidal rate of 40% or more and less than 70%); herbicidal effect on N: redroot pigweed (evaluation grade 0-5) (redroot pigweed [22]): 5 (Herbicidal rate of 90% or more (almost completely withered)); herbicidal effect on O: lambsquarters (evaluation grade 0-5) (lambsquarters [23]): 3 (Herbicidal rate of 40% or more and less than 70%); herbicidal effect on P: chickweed (evaluation grade 0-5) (chickweed [24]): 5 (Herbicidal rate of 90% or more (almost completely withered)); herbicidal effect on R: persian speedwell (evaluation grade 0-5) (persian speedwell [25]): 5 (Herbicidal rate of 90% or more (almost completely withered))
